Measured values as given in patent publication US12178838B2, “Synthetic neuromodulatory peptides” (Lactocore, Inc., priority 2019, dated 2024).

Experiments:
Format in all cases: in vivo
BALB/C mice = assay: Open Field test in mice; details: Diazepam 0.75 mg/kg
Protocol: After an adaptation period, the test substance was intraperitoneally injected into mice. Behavioral parameters were measured in 30 minutes after injection. The tests were administered as follows: day 1—the Open field test, day 3—the Elevated plus maze test, day 5—the Marble burying test, days 12-13—the Porsolt swim (two-day modification) test.
In the Open field test, the installation is an arena with a diameter of 63 cm, illuminated by bright light (500 lux) (OpenScience, Russia). The following parameters were measured during 5-minute experiment: a total distance (cm), a time of motion (if the speed is more than 5 cm/s), an immobility (if the speed is less than 0.2 cm/sec), a mean and maximum velocity, and a number of episodes of motor activity and “freezing”. The same set of parameters, as well as latent period and time duration of stay, were recorded for the central sector of the arena. Defecations and rearing (animal raise upright on hind limbs) were assessed visually (File and Wardill (1975) Validity of head-dipping as a measure of exploration in a modified hole-board. Psychopharmacol., 44, 53-59). The test is designed to measure the level of motor and exploratory activity.
All substances were injected intraperitoneally in a volume of 10 μl of solution per 1 gram of animal weight 30 minutes prior to behavioral testing.

zebrafish (Danio rerio) = assay: Shoaling behavior test in zebrafish; details: ip, DKTE 1 mg/kg, vs control
Protocol: The tested substances were injected into the zebrafish intraperitoneally (ip) using an insulin syringe (0.5 ml, 30 g) 10 minutes before the test. The saline solution (0.9% NaCl) was used as a solvent. Anesthesia and immobilization of the animals were achieved by placing them in water at a temperature of 10° C. Control group fish received intraperitoneal injections of an equivalent volume of solvent, also after going through a pre-cooling procedure.
A Plexiglas container with a removable partition (shown in FIG. 4) was used as a setup for investigating the shoaling behavior of zebrafish. A shoal of 5 adult Danio rerio specimens was placed into in the small compartment; and the test fish was placed in a large compartment. Diffused lighting in this installation was provided by the usual lighting of the room (about 200 Lx).
The shoaling behavior test was performed as described in Parker et al., 2014. (Parker et al. (2014) The utility of zebrafish to study the mechanisms by which ethanol affects social behavior and anxiety during early brain development. Prog. Neuro-Psychopharmacology Biol. Psychiatry. 94-100). The video recording began simultaneously with placing the zebrafish in the set-up and recorded for 5 minutes. The videos were processed using RealTimer (OpenScience Ltd., Moskow, Russia). During the processing of the records, the residence time and the number of visits to the three conventional zones of the aquarium wall (near the “shoal” in the middle of the aquarium, and near the opposite side; all three were equal in size) were recorded.

Sprague Dawley rats = details: FQSE 0.5 mg/kg i.n.; diazepam 2 mg/kg IP
Protocol: The five doses of FQSE (SEQ ID NO:10) (0.01, 0.1, 0.5, 1 and 3 mg/kg, CS, Menlo Park, CA) were prepared fresh for each test day in sterile saline and administered intranasally (i.n.) 30 minutes prior to testing. Fifteen rats per group per peptide dose were tested with the exception that there were twenty rats in the vehicle (0) group. Each dose was administered in a randomized order across rats. Prior to dosing, the rats were lightly anesthetized (till loss of righting reflex) with isoflurane (2.5%, 0.5 L/min oxygen), placed in the recumbent position, then a thin plastic pipette (Fischer Scientific) inserted into the nares and peptide administered at a volume of 15-20 uL per nares. […]
Open field tests occurred in open field apparatus constructed of gray Plexiglas (17″L×17″ W×12″ H (43.2 cm×43.2 cm×30.5 cm; Noldus, Leesburg, VA) with digital cameras positioned above the arenas to detect different measures of activity using specialized software (Ethovision, XT12). Rats were first allowed to acclimate to the testing room for 30 minutes while in their home cage. The test was initiated by placing the animal in the center of the open field chamber and behavior recorded for 30 minutes. The observer was not in the room during testing. Testing was conducted under red-light. Arenas were cleaned thoroughly between subjects with LpH disinfectant. […]

[1] = test system: Wistar rats after chronic unpredictable mild stress; assay: CUMS model: Social Interaction test; details: FQSE 0.5 mg/kg i.n.; diazepam 0.5 mg/kg i.p.; 4 injections; vs control non-stressed rats
Protocol: During stress, the animals were placed in individual cells and exposed to stressful conditions each day for 26 days. Two stressors were used daily, applied in the following order: • Day 1. 10 am-6 pm, rats were placed in a cold room for an hour. From 6 PM to 10 am the lights were turned on and off every 2 hours. • Day 2. 10 am-6 pm, cage tilted to 45°. From 6 PM to 10 am water deprivation. • Day 3. 10 am-6 pm, stroboscopic light. From 6 PM to 10 am the light was left on overnight. • Day 4. 10 am-6 pm, wet bedding. From 6 PM to 10 am the animals were put in a small mouse cage. • Day 5. 10 am-6 pm, no bedding. From 6 PM to 10 am the lights were turned on and off every 2 hours. • Day 6. 10 am-6 pm, a new rat was placed in the cage (6-month-old). From 6 PM to 10 am the light was left on overnight. • Day 7. 10 am-6 pm, white noise. From 6 PM to 10 am a stroboscopic light was turned on at night. • Day 8-26. Repetition of previously used stressors in the specified sequence.
Experimental substances were administered daily starting from the 58-59 day of the experiment. […]
To assess the social activity and depressive state of the animals, a test that evaluates a social interaction of rodents was used. […] Within 10 minutes the duration and number of social contacts with the juvenile male and number of threatening and aggressive contacts were recorded. […]

## CN1C(=O)CN=C(c2ccccc2)c2cc(Cl)ccc21 [Diazepam]
BALB/C mice; ip 30 min before, FQSE 1 mg/kg
  total distance: 2542.2±179.77 cm
BALB/C mice; ip
  time the animals spent in the center: not significantly different
BALB/C mice; ip, FQSE 1 mg/kg
  number of center entries: not significantly different
  number of rearings: 10.8±2.1
Zebrafish (Danio rerio); diazepam 1.25 mg/kg, ACZ-10 0.6 mg/kg, BCM-7 5 mg/kg
  time spent in the compartment near the shoal: statistically significant decrease
Zebrafish (Danio rerio); diazepam 5 mg/kg, FQSE 10 mg/kg
  time spent outside the shoaling compartment (near the wall opposite to the shoal): increase
Sprague Dawley rats
  center zone entries: 54.3±6.2
  total distance: 5289±263 cm
[1]
  duration of social contacts: significant decrease
